The text below walks through data of article PMC4718634, “Murine GPRC6A Mediates Cellular Responses to L-Amino Acids, but Not Osteocalcin Variants” (PLoS ONE, 2016).

Assay [1] has as its system GPRC6A. Set-up: method as in PMID 15576628. To be noted: chimera with goldfish 5.24 receptor and full length GPRC6A; ref [1]; cited from earlier work.
In assay [2] the test system is un-induced FlpIn-TREx-HEK293-mGPRC6A cells. Briefly: Label-free cell impedance, un-induced FlpIn-TREx-HEK293-mGPRC6A cells. The assay is classed as cell-based. To be noted: Fig 4. As for the experimental part: 2.5 x 10^7 FlpIn-TREx-HEK293-mGPRC6A cells were seeded in a T175 flask and incubated overnight at 37°C in 5% CO2. Cells were then transfected with 35 μg of plasmid DNA (GαqG66D) with Lipofectamine LTX according to manufacturer's instructions, then incubated for 24h at 37°C in 5% CO2. Prior to the experiment, a background reading for each E-plate 96 (Bio-Rad, CA, USA) was measured after addition of 100 μl DMEM + 10% FBS per well. Cells were recovered using Versene and seeded at a 10^5 cells/well density in 200 μl DMEM + 10% FBS (containing 1 μg/ml tetracycline where indicated). Cells were washed 2 x 2 h in HBSS buffer (pH 7.2) containing 20 mM HEPES, 1 mM CaCl2 and 0.1% BSA (w/v) in a total volume of 180 μl. Test compounds (20 μl at 10x final concentration) were added to the plate and cell impedance was monitored for 3 h. Cell index was normalised to the buffer response (minus the baseline response at zero time point).

Assay [3] deals with T1, mGPRC6A (mouse GPRC6A) (Mus musculus, UniProt Q8K4Z6).
T1 sequence (Q8K4Z6 21-928): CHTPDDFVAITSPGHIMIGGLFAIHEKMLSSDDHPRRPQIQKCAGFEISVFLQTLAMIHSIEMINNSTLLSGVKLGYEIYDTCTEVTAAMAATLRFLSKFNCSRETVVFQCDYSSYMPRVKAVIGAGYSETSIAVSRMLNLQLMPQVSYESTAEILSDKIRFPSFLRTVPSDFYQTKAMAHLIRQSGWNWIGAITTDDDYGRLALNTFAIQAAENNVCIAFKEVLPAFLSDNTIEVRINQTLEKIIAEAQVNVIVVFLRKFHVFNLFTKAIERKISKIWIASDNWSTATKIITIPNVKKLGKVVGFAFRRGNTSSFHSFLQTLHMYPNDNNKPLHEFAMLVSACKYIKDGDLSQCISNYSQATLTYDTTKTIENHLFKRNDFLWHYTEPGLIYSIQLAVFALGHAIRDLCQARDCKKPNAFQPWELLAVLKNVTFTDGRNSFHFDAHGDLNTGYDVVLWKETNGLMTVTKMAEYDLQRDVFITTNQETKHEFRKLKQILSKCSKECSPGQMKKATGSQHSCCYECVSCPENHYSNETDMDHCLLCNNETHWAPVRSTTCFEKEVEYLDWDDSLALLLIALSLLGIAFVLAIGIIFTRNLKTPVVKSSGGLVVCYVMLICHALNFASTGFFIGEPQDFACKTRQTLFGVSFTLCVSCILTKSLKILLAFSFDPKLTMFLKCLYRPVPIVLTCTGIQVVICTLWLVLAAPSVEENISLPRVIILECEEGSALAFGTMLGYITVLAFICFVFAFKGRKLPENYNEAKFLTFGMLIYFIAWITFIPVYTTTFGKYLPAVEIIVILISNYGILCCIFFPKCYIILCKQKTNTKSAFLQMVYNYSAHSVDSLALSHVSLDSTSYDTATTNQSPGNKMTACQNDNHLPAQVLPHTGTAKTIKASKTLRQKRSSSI
Briefly: Inositol phosphate (IP-One HTRF) accumulation, FlpIn-TREx-HEK293-mGPRC6A cells. The assay is classed as cell-based. The following applies: for EC50: 30 min, HTRF, HBSS pH 7.2, mean ± SEM of at least three independent experiments, read-out: pEC50, inositol phosphate accumulation (converted). Here is the method:
pcDNA 5/FRT/TO constructs were isogenically integrated into a FlpIn-TREx-HEK293 cell line (Life Technologies). FlpIn-TREx-HEK293-mGPRC6A and FlpIn-TREx-HEK293-hGPRC6A cells were then selected using 600 μg/ml hygromycin and 5 μg/ml blasticidin and grown in culture medium consisting of Dulbecco’s Modified Eagle Medium (DMEM), supplemented with 10% (v/v) foetal bovine serum (FBS) at 37°C in 5% CO2 and were sub-cultured in a 1:3 ratio every 3–4 days. Cells were cultured overnight in the presence of 1 μg/ml tetracycline to induce GPRC6A expression. […] 48 h after transfection, cells were selected using 3 μg/ml puromycin and grown as above.
Inositol phosphate (IPX) accumulation experiments were performed using the IP-One HTRF® assay kit (Cisbio, France). Briefly, 24h after transfection with G proteins (as above), 10^5 cells were seeded per well in PDL-coated, 96-well white plates and incubated overnight. Cells were then washed 2 x 2h at 37°C in HBSS buffer (pH 7.2) containing 20 mM HEPES, 3.5 mM NaHCO3, 1 mM CaCl2 and 0.1% (w/v) BSA. Test compounds were then prepared in the kit stimulation buffer containing 2 mM CaCl2; cells were then incubated with 70 μl of drugs for 30 min, after which 15 μl of both IP1-D2 and Ab-Cryp were added to the cells, followed by a 1 h incubation at RT. Plates were read using an Envision plate reader (Perkin Elmer), using an HTRF protocol. Results were calculated from the 665nm / 620nm HTRF ratio (Ratio = A665nm/A620nm x 10^4) and expressed as a percentage of the maximal response obtained.
Concentration-response data were analysed using a three or four parameter logistic function (Motulsky & Christopoulos, 2004) to generate estimates of agonist potency (LogEC50). Data for all HEK293 assays represent the mean ± SEM of at least three independent experiments (except cell impedance, n = 2). For GLP-1 release, the data represent mean ± SEM of three to five independent experiments (except for OCN, wash; n = 2). For insulin release assays, data represent the mean ± SEM of three independent experiments (except for islet studies; n = 2). Insulin release data were normalised to the response to vehicle in either low or high [glucose]. Statistical analysis for GLP-1 release data were performed by one-way ANOVA, followed by Sidak’s multiple comparisons test (treating wash / no wash datasets separately). Statistical analyses for insulin release data were performed by two-way ANOVA (with [glucose] and drug treatment as group variables), followed by Sidak’s multiple comparisons test. Where only high [glucose] groups were evaluated, statistical analysis was by one-way ANOVA followed by Sidak’s multiple comparisons test.
Background: Time-resolved FRET reads energy transfer from a long-lived donor to a nearby acceptor.

Entries after “also recorded” stand apart in the source; their conditions may differ. Where two headings read alike, the source gives them in different places.

As for `NCCC[C@H](N)C(=O)O` [L-ornithine], the “agonist response of GPRC6A” value in assay [1] was “mediates responses to L-amino acids”. Besides, the “cell impedance (cell index) response” value in assay [2] is given as “only mGPRC6A-expressing cells responded to L-ornithine; also recorded: increases cellular impedance only in tetracycline-induced cells”. For the same compound, the EC50 in assay [3] (co-expression of GαqG66D) is 100 µM; in assay [3] (co-expression of wild-type Gαq), 1000 µM. For the same compound, in assay [3] (inositol phosphate accumulation), the “potency of L-ornithine with GαqG66D compared to wild-type Gαq” value is “ten-fold higher potency”.
